Assay results taken from patent publication US20050208496A1, “Methods of testing for bronchial asthma or chronic obstructive pulmonary disease” (Genox Research, Inc., priority 2002, published 2005).
Read-outs that look alike come from different tables or passages of the source.

Test system: respiratory epithelial cells

IL-13: human IL-13 (Peprotech, Inc.) added to the medium at 50 ng/mL to stimulate respiratory epithelial cells
PR01489 57777_at expression change (lot 1 Day 3 AI): −2.1 | PSCA (63958_at) expression change (lot 1 Day 3 AI): −9.8 | RAC2 32737_at expression change (lot 1 Day 3 AI): −4.3 | RGC32 (57044_s_at) expression change (lot 1 Day 3 AI): −2.7 | SCYB14 (65823_at) expression change (lot 1 Day 3 AI): −4.1 | SEMA4B (46709_at) expression change (lot 1 Day 3 AI): −2.8 | SERPINA3 (75248_at) expression change (lot 1 Day 3 AI): −4.8 | SLC34A2 (48048_at) expression change (lot 1 Day 3 AI): −2.8 | STEAP 40297_at expression change (lot 1 Day 3 AI): −2.2 | TCF8 33439_at expression change (lot 1 Day 3 AI): −2.5 | TGFBI (68339_at) expression change (lot 1 Day 3 AI): −2.9 | TNRC3 41246_at expression change (lot 1 Day 3 AI): −2.9 | TPM1 36790_at expression change (lot 1 Day 3 AI): −2.9 | TPM1 36791_g_at expression change (lot 1 Day 3 AI): −2.5 | TPM1 36792_at expression change (lot 1 Day 3 AI): −2.6 | UGB 39220_at expression change (lot 1 Day 3 AI): −6 | VIM 34091_s_at expression change (lot 1 Day 3 AI): −3.4 | W72331 49486 at expression change (lot 1 Day 3 AI): −8 | AA045020 (44676_at) expression change (lot 1 Day 3 IMM): −3.4 | AA059445 46293_at expression change (lot 1 Day 3 IMM): −3.9 | AA059458 (65626_at) expression change (lot 1 Day 3 IMM): −4.5 | AA456099 (59567_at) expression change (lot 1 Day 3 IMM): −2 | AI050855 (64285_at) expression change (lot 1 Day 3 IMM): −2.6 | AI468340 (72604_at) expression change (lot 1 Day 3 IMM): −2.2 | AI984780 (52384_s_at) expression change (lot 1 Day 3 IMM): −2.8 | AQP5 32909_at expression change (lot 1 Day 3 IMM): −3.1 | AW025596 52637_g_at expression change (lot 1 Day 3 IMM): −3.1 | COL12A1 (44730_at) expression change (lot 1 Day 3 IMM): −2.9 | DSC3a, b 47119_at expression change (lot 1 Day 3 IMM): −2.6 | HIN-1 (46200_at) expression change (lot 1 Day 3 IMM): −3.1 | IVL 36355_at expression change (lot 1 Day 3 IMM): −8.4 | KIAA1376 (62972_at) expression change (lot 1 Day 3 IMM): −2.5 | KLF7 34216_at expression change (lot 1 Day 3 IMM): −3.3 | KRT6B (62998_at) expression change (lot 1 Day 3 IMM): −3.5 | LCE 45605_at expression change (lot 1 Day 3 IMM): −2.1 | LOC51297 (49616_at) expression change (lot 1 Day 3 IMM): −4 | LOC51297 (55440_at) expression change (lot 1 Day 3 IMM): −10.5 | LOC51297 (55442_g_at) expression change (lot 1 Day 3 IMM): −4.9 | LOC55893 (64071_at) expression change (lot 1 Day 3 IMM): −2 | LOC129642 (42065_at) expression change (lot 1 Day 3 IMM): −2 | MGC12536 46924_at expression change (lot 1 Day 3 IMM): −2.1 | MGC14128 (51669_r_at) expression change (lot 1 Day 3 IMM): −2.2 | MGC14597 (46030_at) expression change (lot 1 Day 3 IMM): −3.1 | MGC16207 (65876_at) expression change (lot 1 Day 3 IMM): −4.5 | N71183 52473_at expression change (lot 1 Day 3 IMM): −2.4 | PR01489 57777_at expression change (lot 1 Day 3 IMM): −3.4 | RAC2 32737_at expression change (lot 1 Day 3 IMM): −3.5 | SLC11A3 (45826_at) expression change (lot 1 Day 3 IMM): −2.3 | STEAP 40297_at expression change (lot 1 Day 3 IMM): −2.3 | TCF8 33439_at expression change (lot 1 Day 3 IMM): −2.7 | TPM1 36791_g_at expression change (lot 1 Day 3 IMM): −2.2 | UCP2 37591_at expression change (lot 1 Day 3 IMM): −2.3 | UGB 39220_at expression change (lot 1 Day 3 IMM): −4 | VIM 34091_s_at expression change (lot 1 Day 3 IMM): −3.2 | W72331 49486 at expression change (lot 1 Day 3 IMM): −3.2 | AA045020 (44676_at) expression change (lot 2, Day 3, AI): −5.7 | AA059445 46293_at expression change (lot 2, Day 3, AI): −4.5 | AA059458 (65626_at) expression change (lot 2, Day 3, AI): −5.8 | AA079839 (69289_at) expression change (lot 2, Day 3, AI): −2 | AA160156 (47578_at) expression change (lot 2, Day 3, AI): −2.3 | AA369887 (87539_i_at) expression change (lot 2, Day 3, AI): −3.4 | AA456099 (59567_at) expression change (lot 2, Day 3, AI): −2.1 | AA772055 46104_at expression change (lot 2, Day 3, AI): −2.7 | AA779895 59136_at expression change (lot 2, Day 3, AI): −3.2 | AF052107 38262_at expression change (lot 2, Day 3, AI): −3.8 | AI050855 (64285_at) expression change (lot 2, Day 3, AI): −2.9 | AI264299 (84903_f_at) expression change (lot 2, Day 3, AI): −10.4 | AI432375 (49819_at) expression change (lot 2, Day 3, AI): −2.6 | AI468340 (72604_at) expression change (lot 2, Day 3, AI): −2.4 | AI669212 55436_at expression change (lot 2, Day 3, AI): −3.7 | AI740855 (83076_at) expression change (lot 2, Day 3, AI): −2.7 | AI760772 (58528_s_at) expression change (lot 2, Day 3, AI): −2 | AI770116 (70124_at) expression change (lot 2, Day 3, AI): −2.6 | AI798733 (64163_at) expression change (lot 2, Day 3, AI): −2.3 | AI829641 (84270_at) expression change (lot 2, Day 3, AI): −24.1 | AI917602 (49985_at) expression change (lot 2, Day 3, AI): −2.4 | AI948584 48086_at expression change (lot 2, Day 3, AI): −15.6 | AI984780 (52384_s_at) expression change (lot 2, Day 3, AI): −5.3 | AQP5 32909_at expression change (lot 2, Day 3, AI): −5.1 | AW022213 (79520_at) expression change (lot 2, Day 3, AI): −2.9 | AW025596 52634_at expression change (lot 2, Day 3, AI): −2 | AW025596 52637_g_at expression change (lot 2, Day 3, AI): −7.5 | B4GALT5 56373_at expression change (lot 2, Day 3, AI): −2.2 | BARX2 35425_at expression change (lot 2, Day 3, AI): −2.5 | BPGM (51261_at) expression change (lot 2, Day 3, AI): −2.5 | CBLB 514_at expression change (lot 2, Day 3, AI): −4.6 | CRABP-II 1057_at expression change (lot 2, Day 3, AI): −4.7 | CRABP-II 41783_at expression change (lot 2, Day 3, AI): −5.4 | DHCR24 (74557_s_at) expression change (lot 2, Day 3, AI): −2.1 | DKFZp434K1210 44682_at expression change (lot 2, Day 3, AI): −2.9 | DREV1 (63813_at) expression change (lot 2, Day 3, AI): −2.1 | DSC3a, b 47119_at expression change (lot 2, Day 3, AI): −2.2 | EIF4EBP1 (54152_at) expression change (lot 2, Day 3, AI): −2.3 | FLJ10298 (62490_f_at) expression change (lot 2, Day 3, AI): −3.4 | FLJ10718 52072_at expression change (lot 2, Day 3, AI): −5.5 | FLJ12541 43546_at expression change (lot 2, Day 3, AI): −3.8 | FLJ20048 (49196_at) expression change (lot 2, Day 3, AI): −2.3 | FLJ20373 54030_at expression change (lot 2, Day 3, AI): −2.4 | FLJ23516 47534_at expression change (lot 2, Day 3, AI): −2.6 | GJA1 32531_at expression change (lot 2, Day 3, AI): −6.8 | GSTA3 58023 at expression change (lot 2, Day 3, AI): −5.3 | HEY1 44783_s_at expression change (lot 2, Day 3, AI): −5.4 | HIN-1 (46200_at) expression change (lot 2, Day 3, AI): −28 | HSPC195 44705_at expression change (lot 2, Day 3, AI): −2 | ID1 36619_r_at expression change (lot 2, Day 3, AI): −2.3 | IVL 36355_at expression change (lot 2, Day 3, AI): −3.6 | K1IAA1102 (64345_s_at) expression change (lot 2, Day 3, AI): −3.2
